Test results published in US20070049564A1 (Wyeth, priority 2005, published 2007).
Values after ≈ are worked out from the molar mass of the structure shown. Read-outs that look alike come from different tables or passages of the source.

Columns and labels:
E. coli GC 2236 = assay: MIC, broth microdilution; conditions: Escherichia coli, GC2236, E. coli GC 2236
E. coli GC 2232 = assay: MIC, broth microdilution; conditions: Escherichia coli, GC2232, E. coli GC 2232
Experimental: (§1) Antimicrobial susceptibility testing. The in vitro activities of the antibiotics are determined by the broth microdilution method as recommended by the National Committee for Clinical Laboratory Standards (NCCLS) (1). Mueller-Hinton II broth (MHBII)(BBL Cockeysville, Md.) is the medium employed in the testing procedures. Microtiter plates containing serial dilutions of each antimicrobial agent are inoculated with each organism to yield the appropriate density (10^5 CFU/ml) in a 100 μl final volume. The plates are incubated for 18-22 hours at 35° C. in ambient air.
Representative compounds were first incubated in mouse serum for an hour prior to the in vitro testing against a panel of selected gram-positive and gram-negative bacteria strains. All compounds were also pre-incubated in water for an hour prior to testing as control. Representative compounds of Formula I were incubated in human serum prior to MIC determination.

E. coli GC 2234 = assay: MIC, broth microdilution; conditions: Escherichia coli, GC2234, E. coli GC 2234
E. coli GC 2271 = assay: MIC, broth microdilution; conditions: Escherichia coli, GC2271, E. coli GC 2271
E. coli GC 2272 = assay: MIC, broth microdilution; conditions: Escherichia coli, GC2272, E. coli GC 2272
E. coli GC 4559 = assay: MIC, broth microdilution; conditions: Escherichia coli, GC4559, E. coli GC 4559
E. coli GC 3226 = assay: MIC, broth microdilution; conditions: Escherichia coli, GC3226, E. coli GC 3226
E. coli GC 2203 = assay: MIC, broth microdilution; conditions: Escherichia coli, GC2203, E. coli GC 2203
P. aeruginosa GC 2214 = assay: MIC, broth microdilution; conditions: Pseudomonas aeruginosa, GC2214, P. aeruginosa GC 2214
Experimental: as §1
(§2) Representative compounds were first incubated in mouse serum for an hour prior to the in vitro testing against a panel of selected gram-positive and gram-negative bacteria strains. All compounds were also pre-incubated in water for an hour prior to testing as control.

S. aureus GC 1131 = assay: MIC, broth microdilution; conditions: Staphylococcus aureus, GC1131, S. aureus GC 1131
S. aureus GC 6335 = assay: MIC, broth microdilution; conditions: Staphylococcus aureus, GC6335, S. aureus GC 6335
S. epidermidis GC 4935 = assay: MIC, broth microdilution; conditions: Staphylococcus epidermidis, GC4935, S. epidermidis GC 4935
E. faecalis GC 4555 = assay: MIC, broth microdilution; conditions: Enterococcus faecalis, GC4555, E. faecalis GC 4555
E. faecalis GC 2265 = assay: MIC, broth microdilution; conditions: Enterococcus faecalis, GC2265, E. faecalis GC 2265
E. faecalis GC 2267 = assay: MIC, broth microdilution; conditions: Enterococcus faecalis, GC2267, E. faecalis GC 2267
Experimental: as §1, §2

S. pneumoniae* GC 4465 = assay: MIC, broth microdilution; conditions: Streptococcus pneumoniae, S. pneumoniae* GC 4465
S. pneumoniae+ GC 4465 = assay: MIC, broth microdilution; conditions: Streptococcus pneumoniae, S. pneumoniae+ GC 4465
S. pyogenes GC 4563 = assay: MIC, broth microdilution; conditions: Streptococcus pyogenes, GC4563, S. pyogenes GC 4563
S. agalactiae GC 4564 = assay: MIC, broth microdilution; conditions: Streptococcus agalactiae, GC4564, S. agalactiae GC 4564
Staph. aureus Smith = assay: In vivo activity (oral, iv; ED50) against Staph. aureus Smith in mice
Experimental: Representative examples of compounds of Formula I were tested for the oral efficacy using S. aureus Smith in mice.

[1] = Staphylococcus aureus, in Mus musculus, po, read-out: ED50 Staph Smith SOD
[2] = iv, read-out: ED50 Staph Smith SIV

Structure (SMILES)	MIC (E. coli GC 2236; Mouse Serum pre-incubation) [µg/mL]	MIC (E. coli GC 2236; Water pre-incubation) [µg/mL]	MIC (E. coli GC 2232; Mouse Serum pre-incubation) [µg/mL]	MIC (E. coli GC 2232; Water pre-incubation) [µg/mL]	MIC (E. coli GC 2234; Mouse Serum pre-incubation) [µg/mL]	MIC (E. coli GC 2234; Water pre-incubation) [µg/mL]	MIC (E. coli GC 2271; Mouse Serum pre-incubation) [µg/mL]	MIC (E. coli GC 2271; Water pre-incubation) [µg/mL]	MIC (E. coli GC 2272; Mouse Serum pre-incubation) [µg/mL]	MIC (E. coli GC 2272; Water pre-incubation) [µg/mL]	MIC (E. coli GC 4559; Mouse Serum pre-incubation) [µg/mL]	MIC (E. coli GC 4559; Water pre-incubation) [µg/mL]	MIC (E. coli GC 3226; Mouse Serum pre-incubation) [µg/mL]	MIC (E. coli GC 3226; Water pre-incubation) [µg/mL]	MIC (E. coli GC 2203; Mouse Serum pre-incubation) [µg/mL]	MIC (E. coli GC 2203; Water pre-incubation) [µg/mL]	MIC (P. aeruginosa GC 2214; Mouse Serum pre-incubation) [µg/mL]	MIC (P. aeruginosa GC 2214; Water pre-incubation) [µg/mL]	MIC (S. aureus GC 1131; Mouse Serum pre-incubation) [µg/mL]	MIC (S. aureus GC 1131; Water pre-incubation) [µg/mL]	also measured
CCCN(CC(=O)Nc1cc(N(C)C)c2c(c1O)C(=O)C1=C(O)[C@]3(O)C(=O)C(C(N)=O)=C(O)[C@@H](N(C)C)[C@@H]3C[C@@H]1C2)C(=O)OCOC(=O)c1ccc(OC)cc1 [Example 6, ({[(2-{[(5aR,6aS,7S,10aS)-9-(aminocarbonyl)-4,7-bis(dimethylamino)-1,8,10a,11-tetrahydroxy-10,12-dioxo-5,5a,6,6a,7,10,10a,12-octahydrotetracen-2-yl]amino}-2-oxoethyl)(propyl)amino]carbonyl}oxy)methyl 4-methoxybenzoate]	2 (≈ 2.56 µM)	8 (≈ 10.3 µM)	2 (≈ 2.56 µM)	32 (≈ 41 µM)	1 (≈ 1.28 µM)	16 (≈ 20.5 µM)	1 (≈ 1.28 µM)	8 (≈ 10.3 µM)	1 (≈ 1.28 µM)	16 (≈ 20.5 µM)	2 (≈ 2.56 µM)	16 (≈ 20.5 µM)	2 (≈ 2.56 µM)	16 (≈ 20.5 µM)	2 (≈ 2.56 µM)	16 (≈ 20.5 µM)	32 (≈ 41 µM)	> 64	0.5 (≈ 0.641 µM)	1 (≈ 1.28 µM)	MIC (S. aureus GC 6335; Mouse Serum pre-incubation): 0.5 µg/mL (≈ 0.641 µM); MIC (S. aureus GC 6335; Water pre-incubation): 2 µg/mL (≈ 2.56 µM); MIC (S. epidermidis GC 4935; Mouse Serum pre-incubation): 1 µg/mL (≈ 1.28 µM); MIC (S. epidermidis GC 4935; Water pre-incubation): 4 µg/mL (≈ 5.13 µM); MIC (E. faecalis GC 4555; Mouse Serum pre-incubation): 1 µg/mL (≈ 1.28 µM); MIC (E. faecalis GC 4555; Water pre-incubation): 4 µg/mL (≈ 5.13 µM); MIC (E. faecalis GC 2265; Mouse Serum pre-incubation): 2 µg/mL (≈ 2.56 µM); MIC (E. faecalis GC 2265; Water pre-incubation): 4 µg/mL (≈ 5.13 µM); MIC (E. faecalis GC 2267; Mouse Serum pre-incubation): 1 µg/mL (≈ 1.28 µM); MIC (E. faecalis GC 2267; Water pre-incubation): 4 µg/mL (≈ 5.13 µM); MIC (S. pneumoniae* GC 4465; Mouse Serum pre-incubation): 0.12 µg/mL (≈ 0.154 µM); MIC (S. pneumoniae* GC 4465; Water pre-incubation): 0.25 µg/mL (≈ 0.321 µM); MIC (S. pneumoniae+ GC 4465; Mouse Serum pre-incubation): 2 µg/mL (≈ 2.56 µM); MIC (S. pneumoniae+ GC 4465; Water pre-incubation): 2 µg/mL (≈ 2.56 µM); MIC (S. pyogenes GC 4563; Mouse Serum pre-incubation): 0.25 µg/mL (≈ 0.321 µM); MIC (S. pyogenes GC 4563; Water pre-incubation): 0.25 µg/mL (≈ 0.321 µM); MIC (S. agalactiae GC 4564; Mouse Serum pre-incubation): 0.5 µg/mL (≈ 0.641 µM); MIC (S. agalactiae GC 4564; Water pre-incubation): 0.5 µg/mL (≈ 0.641 µM); ED50 (Staph. aureus Smith; [1]): 20.1 mg/kg; ED50 (Staph. aureus Smith; [2]): 0.87 mg/kg
CCCN(CC(=O)Nc1cc(N(C)C)c2c(c1O)C(=O)C1=C(O)[C@]3(O)C(=O)C(C(N)=O)=C(O)[C@@H](N(C)C)[C@@H]3C[C@@H]1C2)C(=O)OCOC(=O)C1CCC1 [Example 7, ({[(2-{[(5aR,6aS,7S,10aS)-9-(aminocarbonyl)-4,7-bis(dimethylamino)-1,8,10a,11-tetrahydroxy-10,12-dioxo-5,5a,6,6a,7,10,10a,12-octahydrotetracen-2-yl]amino}-2-oxoethyl)(propyl)amino]carbonyl}oxy)methyl cyclobutanecarboxylate]	0.25 (≈ 0.344 µM)	2 (≈ 2.75 µM)	0.5 (≈ 0.687 µM)	4 (≈ 5.5 µM)	1 (≈ 1.37 µM)	4 (≈ 5.5 µM)	0.5 (≈ 0.687 µM)	4 (≈ 5.5 µM)	0.5 (≈ 0.687 µM)	4 (≈ 5.5 µM)	1 (≈ 1.37 µM)	8 (≈ 11 µM)	0.5 (≈ 0.687 µM)	8 (≈ 11 µM)	0.5 (≈ 0.687 µM)	4 (≈ 5.5 µM)	16 (≈ 22 µM)	> 64	1 (≈ 1.37 µM)	1 (≈ 1.37 µM)	MIC (S. aureus GC 6335; Mouse Serum pre-incubation): 1 µg/mL (≈ 1.37 µM); MIC (S. aureus GC 6335; Water pre-incubation): 1 µg/mL (≈ 1.37 µM); MIC (S. epidermidis GC 4935; Mouse Serum pre-incubation): 2 µg/mL (≈ 2.75 µM); MIC (S. epidermidis GC 4935; Water pre-incubation): 2 µg/mL (≈ 2.75 µM); MIC (E. faecalis GC 4555; Mouse Serum pre-incubation): 0.5 µg/mL (≈ 0.687 µM); MIC (E. faecalis GC 4555; Water pre-incubation): 1 µg/mL (≈ 1.37 µM); MIC (E. faecalis GC 2265; Mouse Serum pre-incubation): 1 µg/mL (≈ 1.37 µM); MIC (E. faecalis GC 2265; Water pre-incubation): 2 µg/mL (≈ 2.75 µM); MIC (E. faecalis GC 2267; Mouse Serum pre-incubation): 1 µg/mL (≈ 1.37 µM); MIC (E. faecalis GC 2267; Water pre-incubation): 2 µg/mL (≈ 2.75 µM); MIC (S. pneumoniae* GC 4465; Mouse Serum pre-incubation): 0.25 µg/mL (≈ 0.344 µM); MIC (S. pneumoniae* GC 4465; Water pre-incubation): 0.12 µg/mL (≈ 0.165 µM); MIC (S. pneumoniae+ GC 4465; Mouse Serum pre-incubation): 4 µg/mL (≈ 5.5 µM); MIC (S. pneumoniae+ GC 4465; Water pre-incubation): 2 µg/mL (≈ 2.75 µM); MIC (S. pyogenes GC 4563; Mouse Serum pre-incubation): 0.25 µg/mL (≈ 0.344 µM); MIC (S. pyogenes GC 4563; Water pre-incubation): 0.25 µg/mL (≈ 0.344 µM); MIC (S. agalactiae GC 4564; Mouse Serum pre-incubation): 0.25 µg/mL (≈ 0.344 µM); MIC (S. agalactiae GC 4564; Water pre-incubation): 0.5 µg/mL (≈ 0.687 µM); ED50 (Staph. aureus Smith; [1]): 16.1 mg/kg; ED50 (Staph. aureus Smith; [2]): 0.52 mg/kg
CCCN(CC(=O)Nc1cc(N(C)C)c2c(c1O)C(=O)C1=C(O)[C@]3(O)C(=O)C(C(N)=O)=C(O)[C@@H](N(C)C)[C@@H]3C[C@@H]1C2)C(=O)OCOC(=O)c1ccc(F)cc1 [Example 8, ({[(2-{[(5aR,6aS,7S,10aS)-9-(aminocarbonyl)-4,7-bis(dimethylamino)-1,8,10a,11-tetrahydroxy-10,12-dioxo-5,5a,6,6a,7,10,10a,12-octahydrotetracen-2-yl]amino}-2-oxoethyl)(propyl)amino]carbonyl}oxy)methyl 4-fluorobenzoate]	1 (≈ 1.3 µM)	32 (≈ 41.7 µM)	1 (≈ 1.3 µM)	32 (≈ 41.7 µM)	1 (≈ 1.3 µM)	32 (≈ 41.7 µM)	1 (≈ 1.3 µM)	32 (≈ 41.7 µM)	1 (≈ 1.3 µM)	32 (≈ 41.7 µM)	1 (≈ 1.3 µM)	64 (≈ 83.4 µM)	2 (≈ 2.6 µM)	64 (≈ 83.4 µM)	1 (≈ 1.3 µM)	32 (≈ 41.7 µM)	32 (≈ 41.7 µM)	> 64	1 (≈ 1.3 µM)	2 (≈ 2.6 µM)	MIC (S. aureus GC 6335; Mouse Serum pre-incubation): 1 µg/mL (≈ 1.3 µM); MIC (S. aureus GC 6335; Water pre-incubation): 4 µg/mL (≈ 5.21 µM); MIC (S. epidermidis GC 4935; Mouse Serum pre-incubation): 2 µg/mL (≈ 2.6 µM); MIC (S. epidermidis GC 4935; Water pre-incubation): 8 µg/mL (≈ 10.4 µM); MIC (E. faecalis GC 4555; Mouse Serum pre-incubation): 0.5 µg/mL (≈ 0.651 µM); MIC (E. faecalis GC 4555; Water pre-incubation): 8 µg/mL (≈ 10.4 µM); MIC (E. faecalis GC 2265; Mouse Serum pre-incubation): 2 µg/mL (≈ 2.6 µM); MIC (E. faecalis GC 2265; Water pre-incubation): 8 µg/mL (≈ 10.4 µM); MIC (E. faecalis GC 2267; Mouse Serum pre-incubation): 2 µg/mL (≈ 2.6 µM); MIC (E. faecalis GC 2267; Water pre-incubation): 8 µg/mL (≈ 10.4 µM); MIC (S. pneumoniae* GC 4465; Mouse Serum pre-incubation): < 0.06 µg/mL; MIC (S. pneumoniae* GC 4465; Water pre-incubation): 0.25 µg/mL (≈ 0.326 µM); MIC (S. pneumoniae+ GC 4465; Mouse Serum pre-incubation): 1 µg/mL (≈ 1.3 µM); MIC (S. pneumoniae+ GC 4465; Water pre-incubation): 4 µg/mL (≈ 5.21 µM); MIC (S. pyogenes GC 4563; Mouse Serum pre-incubation): 0.12 µg/mL (≈ 0.156 µM); MIC (S. pyogenes GC 4563; Water pre-incubation): 0.5 µg/mL (≈ 0.651 µM); MIC (S. agalactiae GC 4564; Mouse Serum pre-incubation): 0.25 µg/mL (≈ 0.326 µM); MIC (S. agalactiae GC 4564; Water pre-incubation): 0.5 µg/mL (≈ 0.651 µM); ED50 (Staph. aureus Smith; [1]): 16.6 mg/kg; ED50 (Staph. aureus Smith; [2]): 0.48 mg/kg
